For orientation: IC50 means the concentration that inhibits the measured activity by half. Lower therefore signals inhibition by little substance.

The test system of the first assay is RS411 cells. As to the kind of experiment: Cell Viability CTG Assay (CellTiter Glo) in RS411 cells. The class given is cell-based. Particulars: Homo sapiens, RS4-11, 24 h, duration 1 day. The method, boiled down:
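RS411 cells at 1000 cells/well were exposed to compound (top final 10 μM, 3-fold, 11 doses; 0.2% DMSO) at 37 °C, 5% CO2 for 1-4 days. Viability was read by CellTiter Glo luminescence after 10 min at RT. IC50 is reported as letter-code bins.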
In general terms: In ATP-based viability assays light output follows the ATP content of the culture.
In turn, `CC(C)(C)C[C@@H]1N[C@@H](C(=O)N[C@H]2CC[C@H](CN3CCC(C#Cc4cccn5c(N6CCC(=O)NC6=O)cnc45)CC3)CC2)[C@H](c2cccc(Cl)c2F)[C@@]1(C#N)c1ccc(Cl)cc1F` [I-167] came in with an IC50 of more than 1000 nM.
`CN(C(=O)c1ccc(NC(=O)[C@@H]2NC3(CCCCC3)[C@@]3(C(=O)Nc4cc(Cl)ccc43)[C@H]2c2cccc(Cl)c2F)cc1)C1CCC2(CC1)CC(Cc1cccc3c1n(C)c(=O)n3C1CCC(=O)NC1=O)C2` (stereo partly shown) [I-45]: the IC50 fell in the range of 100 to 500 nM.
Regarding `O=C1CCN(c2cncc3cc(C#CC4CCN(C[C@H]5CC[C@H](NC(=O)[C@@H]6NC7(CCCCC7)[C@@]7(C(=O)Nc8cc(Cl)ccc87)[C@H]6c6cccc(Cl)c6F)CC5)CC4)ccc23)C(=O)N1` [I-142], the IC50 lay in the range of 50 to 100 nM.
`CN1[C@@H](C(=O)N[C@H]2CC[C@H](CN3CCC(C#Cc4ccc5c(c4)n(C)c(=O)n5C4CCC(=O)NC4=O)CC3)CC2)[C@H](c2cccc(Cl)c2F)[C@]2(C(=O)Nc3cc(Cl)ccc32)C12CCC(C)(C)CC2` (stereo partly shown) [I-123] gave an IC50 of less than 50 nM.
`Cn1c(=O)n(C2CCC(=O)NC2=O)c2cccc(C3CCN(C[C@H]4CC[C@H](NC(=O)[C@@H]5NC6(CCCCC6)[C@@]6(C(=O)Nc7cc(Cl)ccc76)[C@H]5c5cccc(Cl)c5F)CC4)CC3)c21` (stereo partly shown) [I-109] registered an IC50 of less than 50 nM.
`O=C1CCN(c2cncc3c(C#CC4CCN(C[C@H]5CC[C@H](NC(=O)[C@@H]6NC7(CCCCC7)[C@@]7(C(=O)Nc8cc(Cl)ccc87)[C@H]6c6cccc(Cl)c6F)CC5)CC4)cccc23)C(=O)N1` [I-146] displayed an IC50 of 100 to 500 nM.
`CC(C)(C)C[C@@H]1N[C@@H](C(=O)N[C@H]2CC[C@H](CNCCCC#Cc3cccn4c(N5CCC(=O)NC5=O)cnc34)CC2)[C@H](c2cccc(Cl)c2F)[C@@]1(C#N)c1ccc(Cl)cc1F` [I-202]: the IC50 is more than 1000 nM.
`Cn1c(=O)n(C2CCC(=O)NC2=O)c2ccc(N3CCN(C[C@H]4CC[C@H](NC(=O)[C@@H]5NC6(CCCCC6)[C@@]6(C(=O)Nc7cc(Cl)ccc76)[C@H]5c5cccc(Cl)c5F)CC4)CC3)cc21` (stereo partly shown) [I-207] had an IC50 of less than 50 nM.
For the compound `Cn1c(=O)n(C2CCC(=O)NC2=O)c2ccc(C#CC3CN(C[C@H]4C[C@H](NC(=O)[C@@H]5NC6(CCC(C)(C)CC6)[C@@]6(C(=O)Nc7cc(Cl)ccc76)[C@H]5c5cccc(Cl)c5F)C4)C3)cc21` (stereo partly shown) [I-122], the half-maximal inhibitory concentration (IC50) was less than 50 nM.
Consider `Cn1c(=O)n(C2CCC(=O)NC2=O)c2ccc(CCCCCNC(=O)[C@@H]3CCC(NC(=O)[C@@H]4NC5(CCC(C)(C)CC5)[C@@]5(C(=O)Nc6cc(Cl)ccc65)[C@H]4c4ccnc(Cl)c4F)CO3)cc21` (stereo partly shown) [I-157], for which the IC50 is less than 50 nM.
In the case of `Cn1c(=O)n(C2CCC(=O)NC2=O)c2ccc(C3CCN(C(=O)[C@H]4CC[C@H](NC(=O)[C@@H]5NC6(CCCCC6)[C@@]6(C(=O)Nc7cc(Cl)ccc76)[C@H]5c5cccc(Cl)c5F)CC4)CC3)cc21` (stereo partly shown) [I-174], the IC50 was less than 50 nM.
On to `Cn1c(=O)n(C2CCC(=O)NC2=O)c2ccc(C#CC3CCN(C(=O)[C@H]4CC[C@H](NC(=O)[C@@H]5NC6(CCCCC6)[C@@]6(C(=O)Nc7cc(Cl)ccc76)[C@H]5c5cccc(Cl)c5F)CC4)CC3)cc21` (stereo partly shown) [I-69], for which the IC50 is less than 50 nM.
`Cn1c(=O)n(C2CCC(=O)NC2=O)c2ccc(C#CC3CCN(C[C@H]4CC[C@H](NC(=O)[C@@H]5NC6(CCOCC6)[C@@]6(C(=O)Nc7cc(Cl)ccc76)[C@H]5c5cccc(Cl)c5F)CC4)CC3)cc21` (stereo partly shown) [I-153] returned an IC50 of less than 50 nM.
`Cc1ccc2c(c1C1CCN(C[C@H]3CC[C@H](NC(=O)[C@@H]4NC5(CCCCC5)[C@@]5(C(=O)Nc6cc(Cl)ccc65)[C@H]4c4cccc(Cl)c4F)CC3)CC1)n(C)c(=O)n2C1CCC(=O)NC1=O` (stereo partly shown) [I-185] yielded an IC50 of less than 50 nM.
Compound `COc1cc2c(cc1OC(C)C)C(c1ccc(Cl)cc1)N(c1ccc(N(C)CC3CCN(CCCCCCc4ccc5c(c4)n(C)c(=O)n5C4CCC(=O)NC4=O)CC3)cc1)C(=O)C2` (stereo not shown) [I-86] yielded an IC50 of less than 50 nM.
Compound `Cn1c(=O)n(C2CCC(=O)NC2=O)c2cccc(N3CCC4(CC3)CN(C(=O)c3ccc(NC(=O)[C@@H]5NC6(CCCCC6)[C@@]6(C(=O)Nc7cc(Cl)ccc76)[C@H]5c5cccc(Cl)c5F)cc3)C4)c21` (stereo partly shown) [I-65] yielded an IC50 of less than 50 nM.
Regarding `CCCCCC1N(c2ccc(C(=O)O)cc2OC)C(=O)[C@H]2[C@H](c3cccc(Cl)c3F)[C@@](C#N)(c3ccc(Cl)cc3F)[C@H](CC(C)(C)C)N12` (stereo partly drawn) [I-91, 4-[(5S,6R,7S,7aR)-7-(3-chloro-2-fluoro-phenyl)-6-(4-chloro-2-fluoro-phenyl)-6-cyano-5-(2,2-dimethylpropyl)-1-oxo-3-pentyl-3,5,7,7a-tetrahydropyrrolo[1,2-c]imidazol-2-yl]-3-methoxy-benzoic acid], the IC50 is more than 1000 nM.
Same read-out and setting: in the case of `Cn1c(=O)n(C2CCC(=O)NC2=O)c2ccc(CCCCCNCc3ccc(NC(=O)[C@@H]4NC5(CCCCC5)[C@@]5(C(=O)Nc6cc(Cl)ccc65)[C@H]4c4cccc(Cl)c4F)cc3)cc21` (stereo partly shown) [I-126] it was less than 50 nM; in that of `Cn1c(=O)n(C2CCC(=O)NC2=O)c2ccc(C#CCCN3CCN(C[C@H]4CC[C@H](NC(=O)[C@@H]5NC6(CCC(C)(C)CC6)[C@@]6(C(=O)Nc7cc(Cl)ccc76)[C@H]5c5ccnc(Cl)c5F)CC4)CC3)cc21` (stereo partly shown) [I-198], less than 50 nM.
Same read-out and setting: the figure for `O=C1CCC(N2Cc3c(C#CC4CCN(C(=O)[C@H]5CC[C@H](NC(=O)[C@@H]6NC7(CCCCC7)[C@@]7(C(=O)Nc8cc(Cl)ccc87)[C@H]6c6cccc(Cl)c6F)CC5)CC4)cccc3C2=O)C(=O)N1` (stereo partly shown) [I-134] is less than 50 nM; for `Cn1c(=O)n(C2CCC(=O)NC2=O)c2ccc(C(=O)CC3CCN(C[C@H]4CC[C@H](NC(=O)[C@@H]5NC6(CCOCC6)[C@@]6(C(=O)Nc7cc(Cl)ccc76)[C@H]5c5cccc(Cl)c5F)CC4)CC3)cc21` (stereo partly shown) [I-152] it is 500 to 1000 nM; for `COc1cc2c(cc1OC(C)C)[C@H](c1ccc(Cl)cc1)N(c1ccc(N(C)CC3CCN(C(=O)CCCc4ccc5c(c4)n(C)c(=O)n5C4CCC(=O)NC4=O)CC3)cc1)C(=O)C2` (stereo partly shown) [I-182] it is less than 50 nM.
In turn, `COc1cc2c(cc1OC(C)C)C(c1ccc(Cl)cc1)N(c1ccc(N(C)C(=O)C3CCN(CCCCCCc4ccc5c(c4)n(C)c(=O)n5C4CCC(=O)NC4=O)CC3)cc1)C(=O)C2` (stereo not shown) [I-209] returned an IC50 of more than 1000 nM.
Same read-out and setting: the figure for `Cn1c(=O)n(C2CCC(=O)NC2=O)c2cccc(CN3CCC(OC4CCN(C(=O)c5ccc(NC(=O)[C@@H]6NC7(CCCCC7)[C@@]7(C(=O)Nc8cc(Cl)ccc87)[C@H]6c6cccc(Cl)c6F)cc5)CC4)CC3)c21` (stereo partly shown) [I-49] is less than 50 nM; for `Cn1c(=O)n(C2CCC(=O)NC2=O)c2ccc(C#CC3CCN(C[C@H]4CC[C@H](NC(=O)[C@@H]5NC6(CCCCC6)[C@@]6(C(=O)Nc7cc(Cl)ccc76)[C@H]5c5cccc(Cl)c5F)CC4)CC3)cc21` (stereo partly shown) [I-70] it is less than 50 nM.
Same read-out and setting: the figure for `Cn1c(=O)n(C2CCC(=O)NC2=O)c2ccc(C#CC3CCN(C[C@H]4CC[C@H](NC(=O)[C@@H]5NC6(CCC(C)(C)CC6)[C@@]6(C(=O)Nc7cc(Cl)ccc76)[C@H]5c5ccnc(Cl)c5F)CC4)CC3)cc21` (stereo partly shown) [I-149] is less than 50 nM; for `COc1cc2c(cc1OC(C)C)[C@H](c1ccc(Cl)cc1)N(c1ccc(N(C)CC3CCN(CCCCCCc4ccc5c(c4)n(C)c(=O)n5C4CCC(=O)NC4=O)CC3)cc1)C(=O)C2` (stereo partly shown) [I-201] it is less than 50 nM; for `CN1[C@@H](C(=O)N[C@H]2CC[C@H](CN3CCC4(CC3)CN(CCc3ccc5c(c3)n(C)c(=O)n5C3CCC(=O)NC3=O)C4)CC2)[C@H](c2cccc(Cl)c2F)[C@]2(C(=O)Nc3cc(Cl)ccc32)C12CCCCC2` (stereo partly shown) [I-158] it is less than 50 nM.
As to `CN1[C@@H](C(=O)Nc2ccc(C(=O)N3CCC(C#Cc4ccc5c(c4)n(C)c(=O)n5C4CCC(=O)NC4=O)CC3)cc2)[C@H](c2cccc(Cl)c2F)[C@]2(C(=O)Nc3cc(Cl)ccc32)C12CCCCC2` (stereo partly shown) [I-80], the IC50 is less than 50 nM.
The compound `Cn1c(=O)n(C2CCC(=O)NC2=O)c2ccc(CCCCCNC(=O)c3ccc(NC(=O)[C@@H]4NC5(CCC(C)(C)CC5)[C@@]5(C(=O)Nc6cc(Cl)ccc65)[C@H]4c4cccc(Cl)c4F)cc3)cc21` (stereo partly drawn) [I-74, (3′R,4'S,5′R)-6″-chloro-4′-(3-chloro-2-fluorophenyl)-N-(4-((5-(1-(2,6-dioxopiperidin-3-yl)-3-methyl-2-oxo-2,3-dihydro-1H-benzo[d]imidazol-5-yl)pentyl)carbamoyl)phenyl)-4,4-dimethyl-2″-oxodispiro[cyclohexane-1,2′-pyrrolidine-3′,3″-indoline]-5′-carboxamide] came in with an IC50 of less than 50 nM.
Same read-out and setting: in the case of `Cn1c(=O)n(C2CCC(=O)NC2=O)c2cccc(C#C[C@@H]3CN(C(=O)c4ccc(NC(=O)[C@@H]5NC6(CCCCC6)[C@@]6(C(=O)Nc7cc(Cl)ccc76)[C@H]5c5cccc(Cl)c5F)cc4)CCO3)c21` (stereo partly shown) [I-47] it was 50 to 100 nM; in that of `CN1[C@@H](C(=O)N[C@H]2C[C@@](C)(O)C2)[C@H](c2cccc(Cl)c2F)[C@]2(C(=O)N(CCCCCCCC#Cc3ccc4c(c3)n(C)c(=O)n4C3CCC(=O)NC3=O)c3cc(Cl)ccc32)C12CCCCC2` (stereo partly shown) [I-124], more than 1000 nM.
The compound `Cn1c(=O)n(C2CCC(=O)NC2=O)c2ccc(CN3CCC(OC4CCN(C[C@H]5CC[C@H](NC(=O)[C@@H]6NC7(CCCCC7)[C@@]7(C(=O)Nc8cc(Cl)ccc87)[C@H]6c6cccc(Cl)c6F)CC5)CC4)CC3)cc21` (stereo partly shown) [I-117] returned an IC50 of less than 50 nM.

The same assay, now with this note: Homo sapiens, RS4-11, 72 h, duration 3 days.
Compound `CC(C)[C@@H](CS(=O)(=O)C(C)C)N1C(=O)[C@@](C)(CC(=O)Nc2ccc(C(=O)NCCCC#Cc3cccc4c3CN(C3CCC(=O)NC3=O)C4=O)cc2)C[C@H](c2cccc(Cl)c2)[C@H]1c1ccc(Cl)cc1` (stereo partly shown) [I-27] yielded an IC50 of 100 to 500 nM.

Still in this assay, the particulars now being: Homo sapiens, RS4-11, 96 h, duration 4 days.
Turning to `Cc1ncsc1-c1ccc(CNC(=O)[C@@H]2C[C@@H](O)CN2C(=O)[C@@H](NC(=O)CCCNC(=O)C[C@@]2(C)C[C@H](c3cccc(Cl)c3)[C@@H](c3ccc(Cl)cc3)N([C@H](CS(=O)(=O)C(C)C)C(C)C)C2=O)C(C)(C)C)cc1` [I-11], the IC50 is more than 1000 nM.
As for `CC(C)[C@@H](CS(=O)(=O)C(C)C)N1C(=O)[C@@](C)(CC(=O)NCCCCCCC#Cc2cccc3c2CN(C2CCC(=O)NC2=O)C3=O)C[C@H](c2cccc(Cl)c2)[C@H]1c1ccc(Cl)cc1` (stereo partly shown) [I-26], the IC50 was 50 to 100 nM.
`O=C1CCC(N2Cc3c(C#CCCCNC(=O)c4ccc(NC(=O)[C@@H]5NC6(CCCCC6)[C@@]6(C(=O)Nc7cc(Cl)ccc76)[C@H]5c5cccc(Cl)c5F)cc4)cccc3C2=O)C(=O)N1` (stereo partly shown) [I-29] showed an IC50 of less than 50 nM.

The values above are taken from patent publication US11932624B2, “MDM2 degraders and uses thereof” (Kymera Therapeutics, Inc., priority 2020, dated 2024).
